Assay results as given in ChEMBL document CHEMBL5338723, “Emerging Target-Directed Approaches for the Treatment and Diagnosis of Microbial Infections” (J Med Chem, 2023).
Values after ≈ are worked out from the molar mass of the structure shown. *1 amine or outer side, *2 acyl side, *3 side chain or, on linkers, in order; H or OH if unused. Where a SMILES comes first, the peptide text is derived from it. [ ]: non-standard residue; d: D form. X2 = Cn1c(=O)n([C@@H]2S[C@H]([C@@H](O)[C@@H](N[*:1])C(=O)[*:2])[C@H](O)[C@H]2O)cc/c1=N/C(N)=O; X3 = Cn1c(=O)ccn([C@@H]2S[C@H]([C@@H](O)[C@@H](N[*:1])C(=O)[*:2])[C@H](O)[C@H]2O)c1=O; Orn(N5-OH,N5-Ac) = CC(=O)N(O)CCC[C@H](N)C(=O)O

Experiments:
Escherichia coli [1] = assay: Antibacterial activity against wild type Escherichia coli assessed as microbial growth inhibition; assay type: functional, organism-based
Escherichia coli [2] = assay: Antibacterial activity against enterobactin-deficient Escherichia coli harboring delta entA assessed as microbial growth inhibition; assay type: functional, organism-based
Escherichia coli [3] = assay: Antibacterial activity against enterobactin-deficient Escherichia coli harboring delta entB assessed as microbial growth inhibition; assay type: functional, organism-based
Salmonella typhimurium [4] = assay: Antimicrobial activity against Salmonella enterica subsp. enterica serovar Typhimurium assessed as increase in microbial growth inhibition; assay type: functional
Salmonella enteritidis = assay: Antimicrobial activity against Salmonella enterica subsp. enterica serovar Enteritidis assessed as increase in microbial growth inhibition; assay type: functional
Escherichia coli [5] = assay: Antimicrobial activity against Escherichia coli UTI89 assessed as microbial growth inhibition; assay type: functional
Escherichia coli [6] = assay: Antimicrobial activity against Escherichia coli ATCC 35218 assessed as microbial growth inhibition; assay type: functional
Escherichia coli [7] = assay: Antimicrobial activity against Escherichia coli assessed as microbial growth inhibition; assay type: functional
Streptococcus pneumoniae = assay: Antimicrobial activity against Streptococcus pneumoniae assessed as microbial growth inhibition; assay type: functional
Staphylococcus aureus [8] = assay: Antimicrobial activity against Staphylococcus aureus assessed as microbial growth inhibition; assay type: functional
Bacillus subtilis = assay: Antimicrobial activity against Bacillus subtilis assessed as microbial growth inhibition; assay type: functional
Staphylococcus aureus [9] = assay: Antibacterial activity against Staphylococcus aureus assessed as microbial growth inhibition; assay type: functional, organism-based
Staphylococcus aureus [10] = assay: Potency index, ratio of ciprofloxacin MIC to test compound MIC for antimicrobial activity against Staphylococcus aureus; assay type: functional, organism-based
Escherichia coli [11] = assay: Antimicrobial activity against Escherichia coli 25922 assessed as microbial growth inhibition; assay type: functional
Escherichia coli [12] = assay: Antimicrobial activity against Escherichia coli BAA-196 assessed as microbial growth inhibition; assay type: functional
Escherichia coli [13] = assay: Antimicrobial activity against Escherichia coli DH5alpha assessed as microbial growth inhibition; assay type: functional
Salmonella typhimurium [14] = assay: Antimicrobial activity against Salmonella enterica subsp. enterica serovar Typhimurium 19585 assessed as microbial growth inhibition; assay type: functional
Salmonella typhimurium [15] = assay: Antimicrobial activity against Salmonella enterica subsp. enterica serovar Typhimurium 29630 assessed as microbial growth inhibition; assay type: functional
Salmonella typhimurium [16] = assay: Antimicrobial activity against Salmonella enterica subsp. enterica serovar Typhimurium BAA-190 assessed as microbial growth inhibition; assay type: functional
Salmonella typhi [17] = assay: Antimicrobial activity against Salmonella enterica subsp. enterica serovar Typhi 19214 assessed as microbial growth inhibition; assay type: functional
Salmonella typhi [18] = assay: Antimicrobial activity against Salmonella enterica subsp. enterica serovar Typhi 700931 assessed as microbial growth inhibition; assay type: functional
Shigella flexneri [19] = assay: Antimicrobial activity against Shigella flexneri 2457T assessed as microbial growth inhibition; assay type: functional
Shigella flexneri [20] = assay: Antimicrobial activity against Shigella flexneri M90T assessed as microbial growth inhibition; assay type: functional
Proteus mirabilis = assay: Antimicrobial activity against Proteus mirabilis 29906 assessed as microbial growth inhibition; assay type: functional
Escherichia coli [21] = assay: Antibacterial activity against Escherichia coli MG1655 expressing CTX-M-1 assessed as inhibition of bacterial growth; assay type: functional
Escherichia coli [22] = assay: Antibacterial activity against Escherichia coli MG1655 expressing CMY-2 assessed as inhibition of bacterial growth; assay type: functional
Escherichia coli [23] = assay: Antibacterial activity against Escherichia coli MG1655 expressing NDM-1 assessed as inhibition of bacterial growth; assay type: functional
Escherichia coli [24] = assay: Antibacterial activity against Escherichia coli UTI89 expressing CTX-M-1 assessed as inhibition of bacterial growth; assay type: functional
Escherichia coli [25] = assay: Antibacterial activity against Escherichia coli UTI89 expressing CMY-2 assessed as inhibition of bacterial growth; assay type: functional
Escherichia coli [26] = assay: Antibacterial activity against Escherichia coli UTI89 expressing NDM-1 assessed as inhibition of bacterial growth; assay type: functional
Escherichia coli [27] = assay: Antibacterial activity against Escherichia coli MG1655 assessed as inhibition of bacterial growth; assay type: functional
Escherichia coli [28] = assay: Antibacterial activity against Escherichia coli UTI89 assessed as inhibition of bacterial growth; assay type: functional
Escherichia coli [29] = assay: Antimicrobial activity against Escherichia coli MG1655 expressing TEM-1 assessed as microbial growth inhibition in the presence of bathocuproinedisulfonic acid; assay type: functional
Escherichia coli [30] = assay: Antimicrobial activity against Escherichia coli MG1655 expressing CTX-M-1 assessed as microbial growth inhibition in the presence of bathocuproinedisulfonic acid; assay type: functional
Escherichia coli [31] = assay: Antimicrobial activity against Escherichia coli MG1655 expressing CMY-2 assessed as microbial growth inhibition in the presence of bathocuproinedisulfonic acid; assay type: functional
Escherichia coli [32] = assay: Antimicrobial activity against Escherichia coli MG1655 expressing NDM-1 assessed as microbial growth inhibition in the presence of bathocuproinedisulfonic acid; assay type: functional
Escherichia coli [33] = assay: Antimicrobial activity against Escherichia coli UTI89 expressing TEM-1 assessed as microbial growth inhibition in the presence of bathocuproinedisulfonic acid; assay type: functional
Escherichia coli [34] = assay: Antimicrobial activity against Escherichia coli UTI89 expressing CTX-M-1 assessed as microbial growth inhibition in the presence of bathocuproinedisulfonic acid; assay type: functional
Escherichia coli [35] = assay: Antimicrobial activity against Escherichia coli UTI89 expressing CMY-2 assessed as microbial growth inhibition in the presence of bathocuproinedisulfonic acid; assay type: functional
Escherichia coli [36] = assay: Antimicrobial activity against Escherichia coli UTI89 expressing NDM-1 assessed as microbial growth inhibition in the presence of bathocuproinedisulfonic acid; assay type: functional
[37] = Cytotoxicity against human CCD 19Lu cells assessed as lethal dose by CellTox Green cytotoxicity assay; assay type: toxicity, cell-based; conditions: read-out: LD50 (the source's name)
[38] = Cytotoxicity against human HepG2 cells assessed as lethal dose by CellTox Green cytotoxicity assay; assay type: toxicity, cell-based; conditions: read-out: LD50 (the source's name)
[39] = test system: Acinetobacter genomosp. 13TU; assay: Antimicrobial activity against Acinetobacter nosocomialis assessed as microbial growth inhibition; assay type: functional
Acinetobacter baumannii = assay: Antimicrobial activity against Acinetobacter baumannii assessed as microbial growth inhibition; assay type: functional
Escherichia coli [40] = assay: Antibacterial activity against Escherichia coli assessed as microbial growth inhibition; assay type: functional
Neisseria gonorrhoeae = assay: Antimicrobial activity against Neisseria gonorrhoeae assessed as microbial growth inhibition; assay type: functional
Pseudomonas aeruginosa = assay: Antibacterial activity against Pseudomonas aeruginosa assessed as microbial growth inhibition; assay type: functional
[41] = test system: Mycobacterium tuberculosis; assay: Antimicrobial activity against Mycobacterium tuberculosis H37Rv assessed as microbial growth inhibition; assay type: functional
Proteus vulgaris = assay: Antimicrobial activity against Proteus vulgaris assessed as microbial growth inhibition; assay type: functional
Salmonella typhi [42] = assay: Antimicrobial activity against Salmonella enterica subsp. enterica serovar Typhi assessed as microbial growth inhibition; assay type: functional

## CC(=O)Oc1cccc(C(=O)NCCNC(=O)CN2CCN(CC(=O)NCCCC(=O)NC(C(=O)N[C@@H]3C(=O)N4[C@@H]3SC(C)(C)[C@@H]4C(=O)O)c3ccccc3)CCN(CC(=O)NCCNC(=O)c3cccc(OC(C)=O)c3OC(C)=O)CCN(CC(=O)NCCNC(=O)c3cccc(OC(C)=O)c3OC(C)=O)CC2)c1OC(C)=O (some centres not stated)
Escherichia coli [1]
  IC50: 30.2 µM
Escherichia coli [2]
  IC50: 2100 nM
Escherichia coli [3]
  IC50: 2100 nM

## C[C@@H](O)[C@H]1C(=O)N2C(C(=O)O)=C(S[C@H]3C[C@@H](C(=O)N(C)C)N(C(=O)CCCc4cn(CCOCCOCCOCCNC(=O)c5cc(O)c(O)c(C(=O)N[C@H]6COC(=O)[C@@H](NC(=O)c7cccc(O)c7O)COC(=O)[C@@H](NC(=O)c7cccc(O)c7O)COC6=O)c5)nn4)C3)[C@H](C)[C@H]12
Salmonella typhimurium [4]
  MIC: 0.01 µM
Salmonella enteritidis
  MIC: 0.01 µM
Escherichia coli [5]
  MIC: 0.01 µM (≈ 0.0139 µg/mL)
Escherichia coli [6]
  MIC: 0.01 µM (≈ 0.0139 µg/mL)

## CC(=O)N(O)CCC[C@H](NC(=O)[C@H](CCCN(O)C(C)=O)NC(=O)[C@@H](N)CCCN(O)C(C)=O)C(=O)N[C@@H](CO)C(=O)N[C@@H](C(=O)O)[C@H](O)[C@H]1S[C@@H](n2cc/c(=N/C(N)=O)n(C)c2=O)[C@H](O)[C@H]1O (H-[Orn(N5-OH,N5-Ac)][Orn(N5-OH,N5-Ac)][Orn(N5-OH,N5-Ac)]S[X2]-OH)
Escherichia coli [7]
  MIC: 0.031 µg/mL
Streptococcus pneumoniae
  MIC: 0.063 µg/mL (≈ 0.0634 µM)
Staphylococcus aureus [8]
  MIC: 0.063 µg/mL
Bacillus subtilis
  MIC: 0.063 µg/mL (≈ 0.0634 µM)

## Galbofloxacin
Staphylococcus aureus [9]
  MIC: 93 nM
Staphylococcus aureus [10]
  Ratio: 10

## H-GGAPATSANAAGAAAIVGALAGIPGGPLGVVVGAVSAGLTTAIGSTVGSGSASSSAGGGS-OH
Escherichia coli [11]
  MIC: 1.1 µM
Escherichia coli [12]
  MIC: 1.1 µM
Escherichia coli [13]
  MIC: 1.1 µM
Salmonella typhimurium [14]
  MIC: 1.1 µM
Salmonella typhimurium [15]
  MIC: 1.1 µM
Salmonella typhimurium [16]
  MIC: 1.1 µM
Salmonella typhi [17]
  MIC: 1.1 µM
Salmonella typhi [18]
  MIC: 1.1 µM
Shigella flexneri [19]
  MIC: 1.1 µM
Shigella flexneri [20]
  MIC: 1.1 µM
Proteus mirabilis
  MIC: 1.1 µM

## O=C(Cc1ccccc1)N[C@@H]1C(=O)N2C(C(=O)O)=C(CSc3ccccn3)CS[C@H]12
Escherichia coli [21]
  MIC: 17.5 µM (≈ 7.73 µg/mL)
Escherichia coli [22]
  MIC: 17.5 µM (≈ 7.73 µg/mL)
Escherichia coli [23]
  MIC: 17.5 µM (≈ 7.73 µg/mL)
Escherichia coli [24]
  MIC: 17.5 µM (≈ 7.73 µg/mL)
Escherichia coli [25]
  MIC: 17.5 µM (≈ 7.73 µg/mL)
Escherichia coli [26]
  MIC: 17.5 µM (≈ 7.73 µg/mL)
Escherichia coli [27]
  MIC: 35 µM (≈ 15.5 µg/mL)
Escherichia coli [28]
  MIC: 35 µM (≈ 15.5 µg/mL)
Escherichia coli [29]
  MIC: > 140 µM
Escherichia coli [30]
  MIC: > 140 µM
Escherichia coli [31]
  MIC: > 140 µM
Escherichia coli [32]
  MIC: > 140 µM
Escherichia coli [33]
  MIC: > 140 µM
Escherichia coli [34]
  MIC: > 140 µM
Escherichia coli [35]
  MIC: > 140 µM
Escherichia coli [36]
  MIC: > 140 µM
[37]
  CC50: > 500 µM
[38]
  CC50: > 500 µM

## CCCCCCCCCC(=O)N[C@@H](Cc1c[nH]c2ccccc12)C(=O)N[C@H](CC(N)=O)C(=O)N[C@@H](CC(=O)O)C(=O)N[C@@H]1C(=O)NCC(=O)N[C@@H](CCCNC(=O)[C@H](CCSC)NC(=O)[C@H](Cc2ccc(O)cc2)NC(=O)[C@H](CCCCN)NC(=O)[C@@H]2CCCN2C(=O)[C@H](CO)NC(=O)[C@H](Cc2c[nH]c3ccccc23)NC(=O)CN(CCCCNC(=O)c2cccc(O)c2O)C(=O)c2cccc(O)c2O)C(=O)N[C@@H](CC(=O)O)C(=O)N[C@H](C)C(=O)N[C@@H](CC(=O)O)C(=O)NCC(=O)N[C@H](CO)C(=O)N[C@@H](C(C)CC(=O)O)C(=O)N[C@@H](CC(=O)c2ccccc2N)C(=O)O[C@@H]1C (some centres not stated)
[39]
  MIC: 1 µM (≈ 2.81 µg/mL)
Acinetobacter baumannii
  MIC: 1 µM (≈ 2.81 µg/mL)
Escherichia coli [40]
  MIC: 1 µM (≈ 2.81 µg/mL)

## CC(=O)N(O)CCC[C@H](NC(=O)[C@H](CCCN(O)C(C)=O)NC(=O)[C@@H](N)CCCN(O)C(C)=O)C(=O)N[C@@H](CO)C(=O)N[C@@H](C(=O)O)[C@H](O)[C@H]1S[C@@H](n2ccc(=O)n(C)c2=O)[C@H](O)[C@H]1O (H-[Orn(N5-OH,N5-Ac)][Orn(N5-OH,N5-Ac)][Orn(N5-OH,N5-Ac)]S[X3]-OH)
Neisseria gonorrhoeae
  MIC: 4 ng/mL (≈ 0.00421 µM)

## O=c1[nH]c2ccccc2[nH]/c1=N/N[C@@H]1O[C@H](CO)[C@@H](O)[C@H]1O
Escherichia coli [7]
  MIC: 2.07 µM
Staphylococcus aureus [8]
  MIC: 2.07 µM
Pseudomonas aeruginosa
  MIC: 2.07 µM (≈ 0.638 µg/mL)
[41]
  MIC: 0.65 µM (≈ 0.2 µg/mL)
Proteus vulgaris
  MIC: 2.07 µM (≈ 0.638 µg/mL)
Salmonella typhi [42]
  MIC: 7.8 µM (≈ 2.4 µg/mL)
